Read-outs that look alike come from different tables or passages of the source.
Tests used:
Format in all cases: binding
GABARAP = biological target: T1, GABARAP (Homo sapiens, UniProt O95166); experiment: Bio-layer interferometry (BLI) affinity of SCOC LIR peptides for GABARAP
T1 construct: fused with a Gly-Ser linker to full-length GABARAP (GST-GABARAP (pAL)); GST (followed by 3C protease cleavage site) (N); made in house
Procedure: (§1) Bio-layer interferometry (BLI) is an optical analytical technique for measuring kinetics of interactions in real-time. The biosensor tip surface immobilized with a ligand is incubated with an analyte in solution, resulting in an increase in optical thickness at the biosensor tip and a wavelength shift, which is a direct measure of the change in thickness. Bio-layer interferometry analyses of ATG8s binding to immobilized biotinylated LIR peptides were performed using an Octet Red 96 (ForteBio). […] Ligands-loaded SA biosensors were then incubated with different concentrations of ATG8. All binding experiments were performed in solid-black 96-well plates containing 200 μl of solution (25 mM Tris pH 7.5, 150 mM NaCl, 0.5 mM TCEP, 0.1% Tween20, 1 mg/ml BSA) in each well at 25 °C with an agitation speed of 1000 rpm. Each measurement was repeated 2 to 3 times. Dissociation constants for LIR-ATG8 interactions were determined from plotting the increase in BLI response as a function of the protein concentration and fitting using non-linear regression of ForteBio 7.1 data analysis and GraphPad Prism 7 softwares.
(§2) The following peptides were synthesized using FMOC solid phase peptide chemistry by the Francis CRICK Institute peptide chemistry science technology platform: […]

GABARAPL1 = biological target: T2, GABARAPL1 (Homo sapiens, UniProt Q9H0R8); experiment: Bio-layer interferometry (BLI) affinity of SCOC LIR peptides for GABARAPL1
T2 construct: GST-GABARAPL1 full-length (pAL); GST (followed by 3C protease cleavage site) (N); made in house
Procedure: as §1, §2

LC3C = biological target: T3, LC3C (Homo sapiens, UniProt Q9BXW4); experiment: Bio-layer interferometry (BLI) affinity of SCOC LIR peptides for LC3C
T3 construct: GST (followed by 3C protease cleavage site) (N); made in house
Procedure: as §1, §2

LC3A = biological target: T4, LC3A (Homo sapiens, UniProt Q9H492); experiment: Bio-layer interferometry (BLI) affinity of SCOC LIR peptides for LC3A
T4 construct: GST (followed by 3C protease cleavage site) (N); made in house
Procedure: as §1, §2

GABARAPL2 = biological target: T5, GABARAPL2 (Homo sapiens, UniProt P60520); experiment: Bio-layer interferometry (BLI) affinity of SCOC LIR peptides for GABARAPL2
T5 construct: GST (followed by 3C protease cleavage site) (N); made in house
Procedure: as §1, §2

LC3B = biological target: T6, LC3B (Homo sapiens, UniProt Q9GZQ8); experiment: Bio-layer interferometry (BLI) affinity of SCOC LIR peptides for LC3B
T6 construct: GST (followed by 3C protease cleavage site) (N); made in house
Procedure: as §1, §2

[1] = BLI, wild-type, truncated and phosphorylated SCOC LIR peptides, Tris pH 7.5, 25 °C, average ± standard error of fit, n = 2, Figure 6A, read-out: Kd GAB-L1
[2] = BLI, wild-type, truncated and phosphorylated SCOC LIR peptides, Tris pH 7.5, 25 °C, average ± standard error of fit, n = 2, Figure 6A, read-out: Kd LC3C
[3] = BLI, wild-type, truncated and phosphorylated SCOC LIR peptides, Tris pH 7.5, 25 °C, average ± standard error of fit, n = 2, Figure 6A, read-out: Kd LC3A
[4] = BLI, wild-type, truncated and phosphorylated SCOC LIR peptides, Tris pH 7.5, 25 °C, average ± standard error of fit, n = 2, Figure 6A, read-out: Kd GAB
[5] = BLI, wild-type and phosphorylated SCOC LIR peptides, Tris pH 7.5, 25 °C, average ± standard error of fit, n = 2–3, Figure 4B, read-out: Kd GAB-L2
[6] = BLI, wild-type and phosphorylated SCOC LIR peptides, Tris pH 7.5, 25 °C, average ± standard error of fit, n = 2–3, Figure 4B, read-out: Kd GAB-L1
[7] = BLI, wild-type and phosphorylated SCOC LIR peptides, Tris pH 7.5, 25 °C, average ± standard error of fit, n = 2–3, Figure 4B, read-out: Kd LC3C
[8] = BLI, wild-type and phosphorylated SCOC LIR peptides, Tris pH 7.5, 25 °C, average ± standard error of fit, n = 2–3, Figure 4B, read-out: Kd LC3B
[9] = BLI, wild-type and phosphorylated SCOC LIR peptides, Tris pH 7.5, 25 °C, average ± standard error of fit, n = 2–3, Figure 4B, read-out: Kd LC3A
[10] = BLI, wild-type and phosphorylated SCOC LIR peptides, Tris pH 7.5, 25 °C, average ± standard error of fit, n = 2–3, Figure 4B, read-out: Kd GAB

T5 sequence (P60520 whole entry): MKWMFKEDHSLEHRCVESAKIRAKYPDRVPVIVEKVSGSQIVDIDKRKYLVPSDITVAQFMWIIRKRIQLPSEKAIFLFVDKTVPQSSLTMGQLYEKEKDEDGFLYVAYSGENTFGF
T1 sequence (O95166 whole entry, the tested form may be a part): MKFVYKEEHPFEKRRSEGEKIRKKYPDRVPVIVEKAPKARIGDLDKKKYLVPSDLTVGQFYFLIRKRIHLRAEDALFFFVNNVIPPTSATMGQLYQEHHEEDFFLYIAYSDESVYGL
T2 sequence (Q9H0R8 whole entry): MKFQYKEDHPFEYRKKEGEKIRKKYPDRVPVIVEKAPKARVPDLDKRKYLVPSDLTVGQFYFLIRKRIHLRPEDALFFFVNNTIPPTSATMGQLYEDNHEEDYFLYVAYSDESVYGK
T3 sequence (Q9BXW4 whole entry): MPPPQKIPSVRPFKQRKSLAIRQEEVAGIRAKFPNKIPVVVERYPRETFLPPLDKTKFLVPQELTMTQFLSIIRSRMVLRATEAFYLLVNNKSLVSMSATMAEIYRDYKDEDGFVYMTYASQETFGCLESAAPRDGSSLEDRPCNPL

SMILES | Kd (GABARAPL2; [5]) [µM] | Kd (GABARAPL1; [6]) [µM] | Kd (LC3C; [7]) [µM] | Kd (LC3B; [8]) [µM] | Kd (LC3A; [9]) [µM] | Kd (GABARAP; [10]) [µM] | Kd (GABARAPL2) [µM] | Kd (GABARAPL1) [µM] | Kd (LC3C) [µM] | Kd (LC3B) [µM] | Kd (LC3A) [µM] | Kd (GABARAP) [µM] | also measured
CC[C@H](C)[C@H](NC(=O)[C@H](CC(=O)O)NC(=O)[C@H](CC(=O)O)NC(=O)[C@H](C)NC(=O)[C@H](CC(C)C)NC(=O)[C@H](CO)NC(=O)[C@@H](NC(=O)[C@H](CC(N)=O)NC(=O)[C@@H](NC(=O)[C@H](Cc1ccccc1)NC(=O)[C@@H](NC(=O)[C@H](CO)NC(=O)[C@H](CC(=O)O)NC(=O)[C@H](CCC(=O)O)NC(=O)[C@H](CCC(=O)O)NC(=O)[C@H](CCC(=O)O)NC(=O)[C@H](CCC(=O)O)NC(=O)[C@@H](N)CCCCN)[C@@H](C)O)[C@@H](C)O)[C@@H](C)CC)C(=O)N[C@@H](CC(=O)O)C(=O)N[C@@H](Cc1c[nH]cn1)C(N)=O [SCOC WT] |  |  |  |  |  |  |  |  |  |  |  |  | Kd (GABARAP; BLI, biotinylated LIR peptide on streptavidin biosensor, Tris pH 7.5, 25 °C, average ± standard error of fit, n = 2, Figure 1E, Suppl. Figure 2A, read-out: Kd GABARAP): 3.6 µM
CC[C@H](C)[C@H](NC(=O)[C@H](CC(N)=O)NC(=O)[C@@H](NC(=O)[C@H](Cc1ccccc1)NC(=O)[C@@H](NC(=O)[C@H](CO)NC(=O)[C@H](CC(=O)O)NC(=O)[C@H](CCC(=O)O)NC(=O)[C@H](CCC(=O)O)NC(=O)[C@H](CCC(=O)O)NC(=O)[C@H](CCC(=O)O)NC(=O)[C@@H](N)CCCCN)[C@@H](C)O)[C@@H](C)O)C(=O)N[C@@H](COP(=O)(O)O)C(=O)N[C@@H](CC(C)C)C(=O)N[C@@H](C)C(N)=O [SCOC aa 6-20/pS18] |  |  |  |  |  |  |  |  |  |  |  |  | Kd (GABARAPL1; [1]): 3.8 ± 0.3 µM; Kd (LC3C; [2]): 5 ± 0.5 µM; Kd (LC3A; [3]): 33.3 ± 4.8 µM; Kd (GABARAP; [4]): 7.5 ± 0.8 µM
CC[C@H](C)[C@H](NC(=O)[C@H](CC(N)=O)NC(=O)[C@@H](NC(=O)[C@H](Cc1ccccc1)NC(=O)[C@@H](NC(=O)[C@H](CO)NC(=O)[C@H](CC(=O)O)NC(=O)[C@H](CCC(=O)O)NC(=O)[C@H](CCC(=O)O)NC(=O)[C@H](CCC(=O)O)NC(=O)[C@H](CCC(=O)O)NC(=O)[C@@H](N)CCCCN)[C@@H](C)O)[C@@H](C)O)C(=O)N[C@@H](CO)C(=O)N[C@@H](CC(C)C)C(=O)N[C@@H](C)C(N)=O [SCOC aa 6-20] |  |  |  |  |  |  |  |  |  |  |  |  | Kd (GABARAPL1; [1]): 6.8 ± 0.6 µM; Kd (LC3C; [2]): 21.3 ± 2.4 µM; Kd (LC3A; [3]): 209 ± 25 µM; Kd (GABARAP; [4]): 8.5 ± 0.7 µM
CC[C@H](C)[C@H](NC(=O)[C@H](CC(=O)O)NC(=O)[C@H](CC(=O)O)NC(=O)[C@H](C)NC(=O)[C@H](CC(C)C)NC(=O)[C@H](COP(=O)(O)O)NC(=O)[C@@H](NC(=O)[C@H](CC(N)=O)NC(=O)[C@@H](NC(=O)[C@H](Cc1ccccc1)NC(=O)[C@@H](NC(=O)[C@H](COP(=O)(O)O)NC(=O)[C@H](CC(=O)O)NC(=O)[C@H](CCC(=O)O)NC(=O)[C@H](CCC(=O)O)NC(=O)[C@H](CCC(=O)O)NC(=O)[C@H](CCC(=O)O)NC(=O)[C@@H](N)CCCCN)[C@@H](C)O)[C@@H](C)O)[C@@H](C)CC)C(=O)N[C@@H](CC(=O)O)C(=O)N[C@@H](Cc1c[nH]cn1)C(N)=O [pS12, pS18] | 10.4 ± 0.5 | 0.4 ± 0.03 | 0.4 ± 0.04 | 7.8 ± 0.9 | 1.6 ± 0.2 | 1 ± 0.1 |  |  |  |  |  |  | 
CC[C@H](C)[C@H](NC(=O)[C@H](CC(=O)O)NC(=O)[C@H](CC(=O)O)NC(=O)[C@H](C)NC(=O)[C@H](CC(C)C)NC(=O)[C@H](CO)NC(=O)[C@@H](NC(=O)[C@H](CC(N)=O)NC(=O)[C@@H](NC(=O)[C@H](Cc1ccccc1)NC(=O)[C@@H](NC(=O)[C@H](COP(=O)(O)O)NC(=O)[C@H](CC(=O)O)NC(=O)[C@H](CCC(=O)O)NC(=O)[C@H](CCC(=O)O)NC(=O)[C@H](CCC(=O)O)NC(=O)[C@H](CCC(=O)O)NC(=O)[C@@H](N)CCCCN)[C@@H](C)O)[C@@H](C)OP(=O)(O)O)[C@@H](C)CC)C(=O)N[C@@H](CC(=O)O)C(=O)N[C@@H](Cc1c[nH]cn1)C(N)=O [pS12, pT15] |  |  |  |  |  |  | 8.3 ± 0.4 | 0.37 ± 0.04 | 0.41 ± 0.04 | 4.8 ± 0.6 | 0.7 ± 0.08 | 1 ± 0.1 | 
CC[C@H](C)[C@H](NC(=O)[C@H](CC(=O)O)NC(=O)[C@H](CC(=O)O)NC(=O)[C@H](C)NC(=O)[C@H](CC(C)C)NC(=O)[C@H](CO)NC(=O)[C@@H](NC(=O)[C@H](CC(N)=O)NC(=O)[C@@H](NC(=O)[C@H](Cc1ccccc1)NC(=O)[C@@H](NC(=O)[C@H](COP(=O)(O)O)NC(=O)[C@H](CC(=O)O)NC(=O)[C@H](CCC(=O)O)NC(=O)[C@H](CCC(=O)O)NC(=O)[C@H](CCC(=O)O)NC(=O)[C@H](CCC(=O)O)NC(=O)[C@@H](N)CCCCN)[C@@H](C)O)[C@@H](C)O)[C@@H](C)CC)C(=O)N[C@@H](CC(=O)O)C(=O)N[C@@H](Cc1c[nH]cn1)C(N)=O [pS12] | 12.8 ± 1.3 | 0.88 ± 0.08 | 1.4 ± 0.1 | 41.6 ± 4.6 | 3 ± 0.4 | 1.5 ± 0.1 |  |  |  |  |  |  | 
CC[C@H](C)[C@H](NC(=O)[C@H](CC(=O)O)NC(=O)[C@H](CC(=O)O)NC(=O)[C@H](C)NC(=O)[C@H](CC(C)C)NC(=O)[C@H](COP(=O)(O)O)NC(=O)[C@@H](NC(=O)[C@H](CC(N)=O)NC(=O)[C@@H](NC(=O)[C@H](Cc1ccccc1)NC(=O)[C@@H](NC(=O)[C@H](CO)NC(=O)[C@H](CC(=O)O)NC(=O)[C@H](CCC(=O)O)NC(=O)[C@H](CCC(=O)O)NC(=O)[C@H](CCC(=O)O)NC(=O)[C@H](CCC(=O)O)NC(=O)[C@@H](N)CCCCN)[C@@H](C)O)[C@@H](C)O)[C@@H](C)CC)C(=O)N[C@@H](CC(=O)O)C(=O)N[C@@H](Cc1c[nH]cn1)C(N)=O [pS18] | 26 ± 2.4 | 2.1 ± 0.1 | 1.9 ± 0.2 | 48.9 ± 8.6 | 4.9 ± 0.4 | 3.9 ± 0.3 |  |  |  |  |  |  | 
CC[C@H](C)[C@H](NC(=O)[C@H](CC(=O)O)NC(=O)[C@H](CC(=O)O)NC(=O)[C@H](C)NC(=O)[C@H](CC(C)C)NC(=O)[C@H](CO)NC(=O)[C@@H](NC(=O)[C@H](CC(N)=O)NC(=O)[C@@H](NC(=O)[C@H](Cc1ccccc1)NC(=O)[C@@H](NC(=O)[C@H](CO)NC(=O)[C@H](CC(=O)O)NC(=O)[C@H](CCC(=O)O)NC(=O)[C@H](CCC(=O)O)NC(=O)[C@H](CCC(=O)O)NC(=O)[C@H](CCC(=O)O)NC(=O)[C@@H](N)CCCCN)[C@@H](C)OP(=O)(O)O)[C@@H](C)O)[C@@H](C)CC)C(=O)N[C@@H](CC(=O)O)C(=O)N[C@@H](Cc1c[nH]cn1)C(N)=O [pT13] |  |  |  |  |  |  | 33.8 ± 2.6 | 2 ± 0.2 | 5 ± 0.5 | 193 ± 29 | 10.1 ± 1.5 | 3.1 ± 0.3 | 
CC[C@H](C)[C@H](NC(=O)[C@H](CC(=O)O)NC(=O)[C@H](CC(=O)O)NC(=O)[C@H](C)NC(=O)[C@H](CC(C)C)NC(=O)[C@H](CO)NC(=O)[C@@H](NC(=O)[C@H](CC(N)=O)NC(=O)[C@@H](NC(=O)[C@H](Cc1ccccc1)NC(=O)[C@@H](NC(=O)[C@H](CO)NC(=O)[C@H](CC(=O)O)NC(=O)[C@H](CCC(=O)O)NC(=O)[C@H](CCC(=O)O)NC(=O)[C@H](CCC(=O)O)NC(=O)[C@H](CCC(=O)O)NC(=O)[C@@H](N)CCCCN)[C@@H](C)O)[C@@H](C)OP(=O)(O)O)[C@@H](C)CC)C(=O)N[C@@H](CC(=O)O)C(=O)N[C@@H](Cc1c[nH]cn1)C(N)=O [pT15] |  |  |  |  |  |  | 44 ± 4.5 | 1.2 ± 0.1 | 3.6 ± 0.4 | 37.4 ± 4.5 | 3.7 ± 0.5 | 3 ± 0.3 | 
